The source of these data is the supplement of paper PMC10307832.

Test in all cases: relative viability (nuclei count vs DMSO), 5 days (fraction); higher = more cells survive
Compound in the assay “Elesclomol + Lapatinib”: CN(NC(=O)CC(=O)NN(C)C(=S)c1ccccc1)C(=S)c1ccccc1 [Elesclomol] + CS(=O)(=O)CCNCc1ccc(-c2ccc3ncnc(Nc4ccc(OCc5cccc(F)c5)c(Cl)c4)c3c2)o1 [Lapatinib] (partner 2 µM)
The essentials: (§1)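 Relative viability is defined as nuclei in treated wells over nuclei in vehicle wells. Duplicate plates were run and medians reported. Lung cancer cell lines in 1536-well plates were dosed by pin tool one day after seeding, with one drug or with a fixed anchor-drug dose plus five library-drug doses (not always all listed) in √10 steps, and nuclei were counted after 5 days.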

Compound in the assay “Elesclomol + Trametinib”: CN(NC(=O)CC(=O)NN(C)C(=S)c1ccccc1)C(=S)c1ccccc1 [Elesclomol] + CC(=O)Nc1cccc(-n2c(=O)n(C3CC3)c(=O)c3c(Nc4ccc(I)cc4F)n(C)c(=O)c(C)c32)c1 [Trametinib] (partner 0.02 µM)
An outline of the steps:
as §1

Compound in the assay “Elesclomol + Foretinib”: CN(NC(=O)CC(=O)NN(C)C(=S)c1ccccc1)C(=S)c1ccccc1 [Elesclomol] + COc1cc2c(Oc3ccc(NC(=O)C4(C(=O)Nc5ccc(F)cc5)CC4)cc3F)ccnc2cc1OCCCN1CCOCC1 [Foretinib] (partner 0.25 µM)
The essentials: as §1

Compound in the assay “Elesclomol + Dasatinib”: CN(NC(=O)CC(=O)NN(C)C(=S)c1ccccc1)C(=S)c1ccccc1 [Elesclomol] + Cc1nc(Nc2ncc(C(=O)Nc3c(C)cccc3Cl)s2)cc(N2CCN(CCO)CC2)n1 [Dasatinib] (partner 0.075 µM)
An outline of the steps:
as §1

Compound in the assay “Elesclomol + Navitoclax”: CN(NC(=O)CC(=O)NN(C)C(=S)c1ccccc1)C(=S)c1ccccc1 [Elesclomol] + CC1(C)CCC(c2ccc(Cl)cc2)=C(CN2CCN(c3ccc(C(=O)NS(=O)(=O)c4ccc(N[C@H](CCN5CCOCC5)CSc5ccccc5)c(S(=O)(=O)C(F)(F)F)c4)cc3)CC2)C1 [Navitoclax] (partner 0.5 µM)
An outline of the steps: as §1

As to LCLC-97TM1, the relative viability is 0.575 with Elesclomol + Lapatinib (first compound 0.003162 µM); 0.299 with Elesclomol + Lapatinib (first compound 0.01 µM); 0.687 with Elesclomol + Lapatinib (first compound 0.03162 µM); 0.0906 with Elesclomol + Lapatinib (first compound 0.1 µM); 0.198 with Elesclomol + Trametinib (first compound 0.003162 µM); 0.192 with Elesclomol + Trametinib (first compound 0.01 µM). For the same cell line, the relative viability in the assay with Elesclomol + Trametinib (first compound 0.03162 µM) came out at 0.195; with Elesclomol + Trametinib (first compound 0.1 µM), 0.0969; with Elesclomol + Foretinib (first compound 0.003162 µM), 0.986; in the assay with Elesclomol + Foretinib (first compound 0.01 µM), 0.952; in the assay with Elesclomol + Foretinib (first compound 0.03162 µM), 0.909; in the assay with Elesclomol + Foretinib (first compound 0.1 µM), 0.418. The relative viability with Elesclomol + Dasatinib (first compound 0.003162 µM) stood at 0.854; with Elesclomol + Dasatinib (first compound 0.01 µM), 0.765; in the assay with Elesclomol + Dasatinib (first compound 0.03162 µM), 0.798; with Elesclomol + Dasatinib (first compound 0.1 µM), 0.264; in the assay with Elesclomol + Navitoclax (first compound 0.003162 µM), 0.368; with Elesclomol + Navitoclax (first compound 0.01 µM) it was 0.298. The relative viability with Elesclomol + Navitoclax (first compound 0.03162 µM) turned out to be 0.253; with Elesclomol + Navitoclax (first compound 0.1 µM), 0.115.

As for LK-2, the relative viability stood at 0.698 in the assay with Elesclomol + Lapatinib (first compound 0.003162 µM); 0.22 with Elesclomol + Lapatinib (first compound 0.01 µM); 0.17 with Elesclomol + Lapatinib (first compound 0.03162 µM); 0.0799 in the assay with Elesclomol + Lapatinib (first compound 0.1 µM); 0.468 with Elesclomol + Trametinib (first compound 0.003162 µM); 0.454 with Elesclomol + Trametinib (first compound 0.01 µM). The relative viability with Elesclomol + Trametinib (first compound 0.03162 µM) was found to be 0.428; with Elesclomol + Trametinib (first compound 0.1 µM) it was 0.115; with Elesclomol + Foretinib (first compound 0.003162 µM), 0.89; with Elesclomol + Foretinib (first compound 0.01 µM) it was 0.969; with Elesclomol + Foretinib (first compound 0.03162 µM), 0.719; with Elesclomol + Foretinib (first compound 0.1 µM), 0.177. The relative viability was 0.275 with Elesclomol + Dasatinib (first compound 0.003162 µM); 0.367 with Elesclomol + Dasatinib (first compound 0.01 µM); 0.23 in the assay with Elesclomol + Dasatinib (first compound 0.03162 µM); 0.105 with Elesclomol + Dasatinib (first compound 0.1 µM); 0.671 with Elesclomol + Navitoclax (first compound 0.003162 µM); 0.247 with Elesclomol + Navitoclax (first compound 0.01 µM). Further, the relative viability with Elesclomol + Navitoclax (first compound 0.03162 µM) turned out to be 0.142; with Elesclomol + Navitoclax (first compound 0.1 µM), 0.115.

In the case of LOU-NH91, the relative viability in the assay with Elesclomol + Lapatinib (first compound 0.003162 µM) is 0.733; with Elesclomol + Lapatinib (first compound 0.01 µM) it was 0.669; with Elesclomol + Lapatinib (first compound 0.03162 µM), 0.574; with Elesclomol + Lapatinib (first compound 0.1 µM) it was 0.478; in the assay with Elesclomol + Trametinib (first compound 0.003162 µM), 0.814; with Elesclomol + Trametinib (first compound 0.01 µM), 0.733. In addition, the relative viability in the assay with Elesclomol + Trametinib (first compound 0.03162 µM) amounted to 0.769; in the assay with Elesclomol + Trametinib (first compound 0.1 µM), 0.643; in the assay with Elesclomol + Foretinib (first compound 0.003162 µM) it was 0.902; with Elesclomol + Foretinib (first compound 0.01 µM), 0.868; with Elesclomol + Foretinib (first compound 0.03162 µM), 0.862; with Elesclomol + Foretinib (first compound 0.1 µM), 0.807. The relative viability with Elesclomol + Dasatinib (first compound 0.003162 µM) turned out to be 0.546; in the assay with Elesclomol + Dasatinib (first compound 0.01 µM), 0.52; in the assay with Elesclomol + Dasatinib (first compound 0.03162 µM), 0.428; with Elesclomol + Dasatinib (first compound 0.1 µM) it was 0.432; with Elesclomol + Navitoclax (first compound 0.003162 µM) it was 0.672; with Elesclomol + Navitoclax (first compound 0.01 µM), 0.465. In addition, the relative viability with Elesclomol + Navitoclax (first compound 0.03162 µM) was found to be 0.307; in the assay with Elesclomol + Navitoclax (first compound 0.1 µM), 0.282.

As for LU99A, the relative viability in the assay with Elesclomol + Lapatinib (first compound 0.003162 µM) was 1.02; in the assay with Elesclomol + Lapatinib (first compound 0.03162 µM) it was 0.921; with Elesclomol + Lapatinib (first compound 0.1 µM), 0.135; with Elesclomol + Trametinib (first compound 0.003162 µM), 0.618; in the assay with Elesclomol + Trametinib (first compound 0.01 µM), 0.371; in the assay with Elesclomol + Trametinib (first compound 0.03162 µM) it was 0.58. The relative viability with Elesclomol + Trametinib (first compound 0.1 µM) was determined as 0.339; in the assay with Elesclomol + Foretinib (first compound 0.003162 µM) it was 0.883; with Elesclomol + Foretinib (first compound 0.01 µM), 0.625; with Elesclomol + Foretinib (first compound 0.03162 µM), 0.815; in the assay with Elesclomol + Foretinib (first compound 0.1 µM), 0.234; with Elesclomol + Dasatinib (first compound 0.003162 µM), 0.569. Further, the relative viability with Elesclomol + Dasatinib (first compound 0.01 µM) amounted to 0.39; in the assay with Elesclomol + Dasatinib (first compound 0.03162 µM), 0.512; with Elesclomol + Dasatinib (first compound 0.1 µM) it was 0.185; in the assay with Elesclomol + Navitoclax (first compound 0.003162 µM) it was 0.79; in the assay with Elesclomol + Navitoclax (first compound 0.03162 µM), 0.881; with Elesclomol + Navitoclax (first compound 0.1 µM), 0.132.
